Laboratory results published in US9303249B2, “High concentration α-glucosidase compositions for the treatment of Pompe disease” (Amicus Therapeutics, Inc., priority 2012, dated 2016).
Structures can show the parent of a compound that is named as a salt.

Tests used:
[1] = target: T1, recombinant human GAA (Myozyme®) (Homo sapiens, UniProt P10253); test: SYPRO Orange thermal stability assay; format: binding
T1 construct: purchased Genzyme Corp; host or cells: Chinese hamster ovary cell line
Description: The thermal stability assay utilizes heat to induce protein denaturation, which is monitored using a SYPRO Orange dye that fluoresces upon binding to hydrophobic amino acids (which are not exposed in a folded protein).
Denaturation is monitored using a SYPRO Orange dye that fluoresces upon binding to hydrophobic amino acids (which are not exposed in a folded protein).
The thermal stability was performed at pH 7.4 for two formulations, which corresponds to the pH of the ER.

GAA [2] = target: T2, GAA (Homo sapiens, UniProt P10253); test: GAA levels in cell lines derived from late-onset Pompe patients; format: cell-based; parameters: endogenous in cells; conditions: cell lines with IVS 1 (−13 T>G) splicing mutation
GAA [3] = target: T2, GAA; test: rhGAA enzyme inactivation in whole blood at 37° C.; format: in vitro ADME; parameters: purchased Genzyme Corp; host or cells: Chinese hamster ovary cell line; conditions: for enzyme inactivated: whole blood 37° C., no 1-DNJ-HCl
Description: Aliquots were collected at 0, 2, 4, 8 and 24 hrs and centrifuged to obtain plasma. These plasma samples were then diluted in potassium acetate buffer (pH 4.0) and assayed for GAA activity using the 4-methylumbeliferyl-α-glucose (4-MUG) fluorogenic substrate. The measured GAA activity for individual samples at each time point was normalized to the 0 hr and expressed as % of initial activity. Data from 4 independent experiments were analyzed to obtain the mean (and standard deviation) and plotted versus time to assess the loss of enzyme activity over this time course.
Aliquots were collected at 0, 3 and 6 hrs and centrifuged to obtain plasma. These plasma samples were then diluted in potassium acetate buffer (pH 4.0) and assayed for GAA activity using the 4-methylumbeliferyl-α-glucose (4-MUG) fluorogenic substrate. The measured GAA activity for individual samples at each time point was normalized to the 0 hr and expressed as % of initial activity.
Moreover, since Myozyme® has a long plasma half-life (reported to be more than 3 hrs), there is a high probability that an appreciable amount of the enzyme remains in the circulation many hours after the infusion that would also be prone to inactivation.
Based on human plasma PK data, these concentrations are readily obtainable in the clinic.

[4] = Circulating rhGAA after subcutaneous DNJ co-formulated with Myozyme® (FIG. 14); format: in vivo; conditions: DNJ co-formulated with 20 mg/kg Myozyme® vs Myozyme® without DNJ
[5] = Aggregation of 25 mg/mL Myozyme® at pH 7.4 and 37° C. (Example 10); format: physicochemical; conditions: 1 mM DNJ, PBS pH 7.4, 4 weeks at 37° C.
Description: Aggregation was assessed after a 4 week incubation period.
A liquid formulation comprising DNJ and GAA was prepared by dissolving DNJ in water to achieve a concentration of 10 mM DNJ. GAA was reconstituted in 1.8 ml water, and dialyzed overnight in phosphate buffered-saline (pH 7.4). […] of DNJ (10 mM) was then be added to 400 microliters of GAA, such that the GAA was at a concentration of 25 mg/ml.
25 mg/mL Myozyme® was incubated with or without 1 mM DNJ in phosphate-buffered saline at pH 7.4. Aggregation of Myozyme® was assessed after incubation for 4 weeks at 37° C.

GAA KO mice [6] = test: Tissue glycogen reduction after repeat IV Myozyme® in GAA KO mice; format: in vivo, mouse; conditions: 20 mg/kg IV bolus, 4 administrations at two-week intervals, 14 days after last
Source text: (§1) Mice were euthanized 3 days after the last administration for tissue GAA activity measurement and 14 days after the administration for glycogen measurement. Data was compared with uptake (on day 3) and glycogen reduction (on day 14) of historical Lumizyme® IV alone study. Tissue samples included heart, diaphragm, tongue, ventral skin (non-injection site), skin from the hind limb injection site, skin from the shoulder SQ injection site, left and right limb muscles (biceps, triceps, quadriceps, soleus and gastrocnemius). GAA activities in tissues were determined using a 4-MUG fluorogenic substrate assay. Glycogen levels were determined using a glycogen assay (see Example 9 for method).

GAA KO mice [7] = test: Tissue rhGAA activity after repeat IV Myozyme® in GAA KO mice; format: in vivo, mouse; conditions: 20 mg/kg IV bolus, 4 doses at 2 week intervals, 3 days after last dose
Source text: as §1
For both studies, the enzyme activities in tissues were assessed three days after the last (fourth) administration.

GAA KO mice [8] = test: Tissue glycogen reduction in GAA KO mice, Myozyme® IV with or without oral 1-DNJ-HCl (Example 9); format: in vivo, mouse
Description: Twelve-week old male GAA KO mice were administered a single dose of Myozyme® (40 mg/kg) via bolus tail vein injection every other week for 8 weeks. To prevent anaphylaxis, before the third and fourth Myozyme® injection, diphenhydramine (10 mg/kg intraperitoneally) was administered 10 min before Myozyme® injection. […] Mice were euthanized 14 days after the last Myozyme® administration.
Glycogen levels in heart, diaphragm, soleus, and quadriceps were then measured. […] Briefly, homogenates were prepared by homogenizing ˜50 mg tissue for 3-5 seconds on ice with a microhomogenizer in 200 μL deionized water. Supernatants were heat denatured (99° C. for 10 min) to remove endogenous amyloglucosidase activity. Denatured lysates (4 μL) were then analyzed in duplicate by addition of 36 μL water with and without 10 μL of 800 U/mL of amyloglucosidase (Sigma Aldrich, St. Louis, Mo.) and incubated for 1 hour at 50° C. The reaction was stopped by inactivation at 100° C. for 10 min. Finally, 200 μL of glucose reagent (Sigma) was added absorbance read at 340 nm on Spectramax. A standard curve ranging from 5 μg/mL to 400 μg/mL Type III rabbit liver glycogen (Sigma) was run each day for conversion of absorbance to absolute glycogen units. Simultaneously, the amount of protein was determined in tissue homogenates using the Micro BCA Protein Assay (Pierce, Rockford, Ill.) following the manufacturer's instructions. The glycogen content of each sample was normalized to protein, and data were finally expressed as micrograms of glycogen per milligram of protein (μg/mg protein).

[9] = rat, iv
Description: Four groups of rats were administered one of the following dosing regimens:
(2) 10 mg/kg of rhGAA+Water;

Q: What does the source list for `OC[C@H]1NC[C@H](O)[C@@H](O)[C@@H]1O` [1-DNJ-HCl, 1-deoxynojirimycin hydrochloride]?
A: thermal stability of rhGAA (heat to denature) ([1]; 100 μM 1-DNJ-HCl, pH 7.4, vs formulation without ASSC): required significantly more heat to denature; GAA thermostability (melting temperature) ([1]; Myozyme® plus 1, 10, 100 μM 1-DNJ-HCl): increases GAA thermostability; GAA levels (GAA [2]): increased GAA levels alone and in combination with hrGAA; loss of rhGAA activity (GAA [3]; 2.5 μM 1-DNJ-HCl, whole blood, 6-hr time course): ~20%; rhGAA activity in whole blood (GAA [3]; 50 μM 1-DNJ-HCl, 37° C., up to 24 hrs): remained completely active throughout the study

Q: Which “circulating levels of rhGAA” value [4] does the source give for `OC[C@H]1NC[C@H](O)[C@@H](O)[C@@H]1O` [DNJ, 1-deoxynojirimycin] here?
A: Its value is “increased the circulating levels of rhGAA”.

Q: And the “aggregation of Myozyme®” value [5]?
A: Its value is “reduced aggregation of Myozyme®”.

Q: With “Myozyme®: alglucosidase alfa, recombinant human acid α-glucosidase from Genzyme Corporation” as the compound, how does the “Glycogen reduction (% of untreated)” value (GAA KO mice [6]; Biceps) read?
A: The value was 5%.

Q: And the “Glycogen reduction (% of untreated)” value (GAA KO mice [6]; Diaphragm)?
A: Its value is 19%.

Q: What about the “Glycogen reduction (% of untreated)” value (GAA KO mice [6]; Gastrocnemius) of the same compound?
A: The value was 15%.

Q: And the “Glycogen reduction (% of untreated)” value (GAA KO mice [6]; Heart)?
A: Its value is 51%.

Q: What about the “Glycogen reduction (% of untreated)” value (GAA KO mice [6]; Quadriceps) of the same compound?
A: Its value is 8%.

Q: What about the “Glycogen reduction (% of untreated)” value (GAA KO mice [6]; Skin, 20 mg/kg) of the same compound?
A: The value was “No reduction”.

Q: What about the “Glycogen reduction (% of untreated)” value (GAA KO mice [6]; Skin, listed as rhGAA (Myozyme), 20 mg/kg) of the same compound?
A: Its value is “No”.

Q: What about the “Glycogen reduction (% of untreated)” value (GAA KO mice [6]; Tongue) of the same compound?
A: Its value is 54%.

Q: What about the “Glycogen reduction (% of untreated)” value (GAA KO mice [6]; Triceps) of the same compound?
A: The value was 4%.

Q: What about the rhGAA activity uptake (GAA KO mice [7]; Biceps) of the same compound?
A: Its rhGAA activity uptake is 10.1 nmol/mg/h.

Q: What about the rhGAA activity uptake (GAA KO mice [7]; Diaphragm) of the same compound?
A: Its rhGAA activity uptake is 7.1 nmol/mg/h.

Q: What about the rhGAA activity uptake (GAA KO mice [7]; Gastrocnemius) of the same compound?
A: Its rhGAA activity uptake is 17.9 nmol/mg/h.

Q: What about the rhGAA activity uptake (GAA KO mice [7]; Heart) of the same compound?
A: Its rhGAA activity uptake is 1.8 nmol/mg/h.

Q: What about the rhGAA activity uptake (GAA KO mice [7]; Quadriceps) of the same compound?
A: Its rhGAA activity uptake is 6.9 nmol/mg/h.

Q: What about the rhGAA activity uptake (GAA KO mice [7]; Skin) of the same compound?
A: The rhGAA activity uptake was 27.1 nmol/mg/h.

Q: And the rhGAA activity uptake (GAA KO mice [7]; Soleus, 20 mg/kg)?
A: Its rhGAA activity uptake is 8.0 nmol/mg/h.

Q: What about the rhGAA activity uptake (GAA KO mice [7]; Soleus, listed as rhGAA (Myozyme), 20 mg/kg) of the same compound?
A: The rhGAA activity uptake was 8 nmol/mg/h.

Q: What about the rhGAA activity uptake (GAA KO mice [7]; Tongue) of the same compound?
A: Its rhGAA activity uptake is 12.4 nmol/mg/h.

Q: And the rhGAA activity uptake (GAA KO mice [7]; Triceps)?
A: Its rhGAA activity uptake is 3.9 nmol/mg/h.

Q: What about the “Glycogen reduction relative to untreated mice” value (GAA KO mice [8]; diaphragm, same regimen) of the same compound?
A: Its value is 41±4%.

Q: And the “Glycogen reduction relative to untreated mice” value (GAA KO mice [8]; heart, Myozyme® 40 mg/kg IV every other week for 8 weeks, +/- 30 mg/kg oral 1-DNJ-HCl)?
A: The value was 93±1%.

Q: And the “Glycogen reduction relative to untreated mice” value (GAA KO mice [8]; quadriceps, same regimen)?
A: The value was 18±4%.

Q: And the “Glycogen reduction relative to untreated mice” value (GAA KO mice [8]; soleus, same regimen)?
A: Its value is 69±3%.

Q: Which “in vivo half life of rhGAA” value [9] does the source give for “rhGAA: recombinant human acid α-glucosidase (e.g., Myozyme®)” here?
A: Its value is 1.4 ± 0.2 h.

Q: What about the enzyme inactivated (GAA [3]; by 4 hrs) of the same compound?
A: The enzyme inactivated was “approximately 40%”.

Q: And the enzyme inactivated (GAA [3]; by 8 hrs)?
A: The enzyme inactivated was ~70%.

Q: What about the enzyme inactivated (GAA [3]; by 24 hrs) of the same compound?
A: Its enzyme inactivated is ~100%.
